The source made the active and inactive calls.
How the values were obtained:
INS1 = assay: INS-1E survival protection against cytokine death – cell-based, luminescence, retest, dose response (AID 449756); format: functional; settings: Rattus norvegicus;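 further: cell death triggered by IL-1 beta plus TNF-alpha plus IFN-gamma mixture; protective hits raise ATP signal compared with cytokine alone wells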
[1] = NIH3T3 cell viability loss – ATP luminescence, mouse fibroblasts, counter-screen, dose response (AID 2010); format: functional, cell-based;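 further: cells exposed to compound for about 90 hours before reading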
[2] = Trypanosoma cruzi growth suppression in host cells – NIH3T3 host cells, beta-gal luminescence, confirmation (AID 2044); format: functional, cell-based;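 further: intracellular parasites grown in NIH/3T3 mouse fibroblasts as host cells; luminescent beta-galactosidase reporter signal from transgenic T. cruzi replicating inside host cells; inhibitors lower the luminescence signal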
[3] = Luminescence Cell-Based Dose Retest to Confirm Inhibitors of Cancer Stem Cells. [Related pubchem assays (depositor defined):AID2717, AID2721]; format: functional; settings: Homo sapiens

Which AC50 (INS1) does the source give for `O=P(Oc1ccccc1)(Oc1ccccc1)N1CCN(c2ccc(F)cc2)CC1` here?
Its AC50 is 19.4 µM (active).

What does the source list for `Cc1ccc(-c2nc3cc(Br)cnc3nc2-c2ccc(C)cc2)cc1`?
EC50 [1]: > 60 µM (not active); EC50 [2]: 2.68 µM (active)

With `COC(=O)c1ccc(NC(=O)CCN2CCN(Cc3ccccc3)CC2)cc1` as the compound, how does the EC50 [1] read?
Its EC50 is > 60 µM (inconclusive).

What about the EC50 [2] of the same compound?
The EC50 was 0.123 µM (active).

Which AC50 [3] does the source give for `CCCOc1ccc(-c2nc(N3CCN(CC)CC3)c3ccccc3n2)cc1` here?
The AC50 was 5.57 µM (active).

With `Cc1cc(C)c(OCC(O)CNC(C)(C)C)c(C)c1` (stereo not drawn) as the compound, how does the AC50 (INS1) read?
Its AC50 is > 120 µM (inactive).

Which AC50 [3] does the source give for `CCN1C(=O)C(CC(=O)Nc2ccc(F)cc2)N(CCCN2CCN(c3ccc(F)cc3)CC2)C1=S` (stereo not drawn) here?
Its AC50 is 3.1 µM (active).

Which AC50 [3] does the source give for `COc1cc2c(cc1NC(=O)c1cccc(S(=O)(=O)N(C)C)c1)oc1ccccc12` here?
Its AC50 is 2.54 µM (active).

With `O=C(NCC1CCCCC1)c1cc2ccccc2cc1O` as the compound, how does the AC50 [3] read?
Its AC50 is 5.19 µM (active).

Which AC50 [3] does the source give for `C=C[C@@H]1c2cccc(C)c2N(S(=O)(=O)c2ccc(C)cc2)[C@H](c2ccc(OC(C)=O)cc2)C1(C#N)C#N` here?
Its AC50 is 5.13 µM (active).

With `CCOc1ccccc1N1CCN(c2ncnc3scc(-c4ccc(OC)cc4)c23)CC1` as the compound, how does the EC50 [1] read?
Its EC50 is > 60 µM (not active).

What about the EC50 [2] of the same compound?
The EC50 was 2.44 µM (active).

What does the source list for `CC(Nc1nc(N2CCCCC2)nc2ccccc12)c1ccccc1` (stereo not drawn)?
EC50 [1]: 9.37 µM (active); EC50 [2]: 0.773 µM (active)

Which EC50 [1] does the source give for `CSc1cccc(NC(=S)N(CCCN2CCCC2)Cc2cccn2Cc2ccc(Cl)cc2)c1` here?
The EC50 was > 60 µM (not active).

What about the EC50 [2] of the same compound?
Its EC50 is 2.25 µM (active).

With `CCOC(=O)C1(Cc2cccc(OC)c2)CCCN(Cc2c(C)nn(C(C)C)c2C)C1` (stereo not drawn) as the compound, how does the EC50 [1] read?
Its EC50 is > 60 µM (not active).

What about the EC50 [2] of the same compound?
Its EC50 is 1.19 µM (active).

Which EC50 [1] does the source give for `CCC(=O)c1cc(F)c(N2CCN(S(=O)(=O)c3ccc(C)cc3)CC2)cc1C` here?
Its EC50 is > 60 µM (not active).

What about the EC50 [2] of the same compound?
The EC50 was 2.68 µM (active).

With `COc1ccccc1NS(=O)(=O)c1cc(NC(=O)Nc2ccc(Cl)cc2Cl)ccc1N1CCCCC1` as the compound, how does the EC50 [2] read?
Its EC50 is 1.58 µM (active).

For `CCN(CC)c1ccc(S(=O)(=O)N2CCCCC2)cc1NC(=O)C1=COCCO1`, which EC50 [1] is on record?
The EC50 was > 60 µM (not active).

What about the EC50 [2] of the same compound?
Its EC50 is 7.54 µM (active).

Which results are given for `CC1CCN(C(=O)C(=O)c2cn(CC(=O)N3CCCCCC3)c3ccccc23)CC1`?
EC50 [1]: > 60 µM (not active); EC50 [2]: 1.26 µM (active)

For `Cc1cc2c(NCCc3ccccc3)ncnc2s1`, which AC50 (INS1) is on record?
Its AC50 is 1.98 µM (active).

Which EC50 [1] does the source give for `COc1ccccc1/C=C(/CC(=O)NCc1ccc2c(c1)OCO2)c1nc2ccccc2s1` here?
Its EC50 is > 60 µM (not active).

What about the EC50 [2] of the same compound?
The EC50 was 2.19 µM (active).

With `CCN(CC)S(=O)(=O)c1ccc(N2CCN(c3ccccc3OC)CC2)c(N)c1` as the compound, how does the AC50 (INS1) read?
The AC50 was 3.55 µM (active).

For `O=C(COc1ccc(F)cc1Cl)Nc1cc(S(=O)(=O)N2CCOCC2)ccc1N1CCCCC1`, which EC50 [1] is on record?
Its EC50 is > 60 µM (not active).

What about the EC50 [2] of the same compound?
Its EC50 is 2.56 µM (active).

With `CC(=O)c1c(C)n(CC(=O)NCc2ccco2)c2ccccc12` as the compound, how does the AC50 (INS1) read?
Its AC50 is > 260 µM (inactive).

For `S=C(Nc1cccc(Br)c1)N1CCn2cccc2C1c1cccnc1` (stereo not drawn), which EC50 [1] is on record?
The EC50 was > 60 µM (not active).

And the EC50 [2]?
The EC50 was 1.78 µM (active).

For `O=C(NCc1cccs1)c1cc(-c2ccncc2)nc2ccc(Br)cc12`, which EC50 [1] is on record?
The EC50 was > 60 µM (not active).

And the EC50 [2]?
The EC50 was 2.66 µM (active).

Which results are given for `O=C(CSc1ncnc2c1nnn2Cc1ccc(F)cc1)NC1CCCC1`?
EC50 [1]: > 30 µM (not active); EC50 [2]: 3.93 µM (active)

What does the source list for `CC1(C)CC(NCCN2CCN(C3=CC(=C(C#N)C#N)CC(C)(C)C3)CC2)=CC(=C(C#N)C#N)C1`?
EC50 [1]: > 60 µM (not active); EC50 [2]: 1.31 µM (active)

For `O=C(NCCOCCOCCNC(=O)c1cccnc1)c1cccnc1`, which AC50 (INS1) is on record?
Its AC50 is 2.55 µM (active).

For `Fc1ccc(CN2CCCN(Cc3nc(-c4ccc5c(c4)OCO5)no3)CC2)cc1`, which EC50 [1] is on record?
Its EC50 is > 60 µM (inconclusive).

What about the EC50 [2] of the same compound?
The EC50 was 0.103 µM (active).

For `CCOc1cc(N2CCOCC2)c(OCC)cc1NC(=O)c1ccc2ccccc2n1`, which EC50 [1] is on record?
Its EC50 is 7.58 µM (active).

And the EC50 [2]?
Its EC50 is 2.63 µM (active).

Which results are given for `O=[N+]([O-])c1cccc(S(=O)(=O)N2CCC(c3nc(-c4ccncc4)no3)CC2)c1`?
EC50 [1]: > 30 µM (not active); EC50 [2]: 1.85 µM (active)
